Structures can show the parent of a compound that is named as a salt.
Molecular target: SHP2 (Homo sapiens (Human), UniProt Q06124)
Assay: SHP2 Biochemical Assay (DiFMUP conversion, pIRS1 activating peptide)
Conditions: DiFMUP substrate, 0.25 μM pIRS1 peptide, 30 min pre-incubation; average where more than one data point; read-out: SHP2 (IC50)

Sequence of SHP2 (Q06124 whole entry): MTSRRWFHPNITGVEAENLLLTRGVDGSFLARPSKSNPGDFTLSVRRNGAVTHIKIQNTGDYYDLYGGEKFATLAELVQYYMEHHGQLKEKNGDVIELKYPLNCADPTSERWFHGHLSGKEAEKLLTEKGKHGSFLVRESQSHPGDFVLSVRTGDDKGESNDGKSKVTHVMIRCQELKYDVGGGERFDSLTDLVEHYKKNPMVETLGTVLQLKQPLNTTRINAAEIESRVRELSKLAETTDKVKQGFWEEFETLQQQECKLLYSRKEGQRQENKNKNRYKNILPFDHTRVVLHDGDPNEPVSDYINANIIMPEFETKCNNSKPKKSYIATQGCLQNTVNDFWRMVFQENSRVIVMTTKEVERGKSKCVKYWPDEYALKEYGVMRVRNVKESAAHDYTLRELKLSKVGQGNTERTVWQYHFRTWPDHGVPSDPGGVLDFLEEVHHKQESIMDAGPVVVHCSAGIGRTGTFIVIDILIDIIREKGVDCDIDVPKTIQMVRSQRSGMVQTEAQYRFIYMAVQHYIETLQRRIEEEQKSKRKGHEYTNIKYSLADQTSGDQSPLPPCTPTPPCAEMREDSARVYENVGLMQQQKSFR

SMILES | IC50 [nM]
CCn1cc2c(Cl)c(-c3n[nH]c4nc(N5[C@H]6CC[C@@H]5[C@@H](F)[C@@H](N)C6)c(CO)nc34)ccc2n1 [Example 82, {6-[(1R,2S,3S,5S)-3-amino-2-fluoro-8-azabicyclo[3.2.1]octan-8-yl]-3-(4-chloro-2-ethyl-2H-indazol-5-yl)-1H-pyrazolo[3,4-b]pyrazin-5-yl}methanol] | 12
Cn1nc2ccc(-c3n[nH]c4nc(N5[C@H]6CC[C@@H]5[C@@H](F)[C@@H](N)C6)c(CO)nc34)c(F)c2c1Cl [Example 83, {6-[(1R,2S,3S,5S)-3-amino-2-fluoro-8-azabicyclo[3.2.1]octan-8-yl]-3-(3-chloro-4-fluoro-2-methyl-2H-indazol-5-yl)-1H-pyrazolo[3,4-b]pyrazin-5-yl}methanol] | 8.6
COc1cnc2ccc(-c3n[nH]c4nc(N5[C@H]6CC[C@@H]5[C@@H](F)[C@@H](N)C6)c(CO)nc34)c(Cl)c2n1 [Example 84, {6-[(1R,2S,3S,5S)-3-amino-2-fluoro-8-azabicyclo[3.2.1]octan-8-yl]-3-(5-chloro-3-methoxyquinoxalin-6-yl)-1H-pyrazolo[3,4-b]pyrazin-5-yl}methanol] | 7.4
Cn1nc2ccc(-c3n[nH]c4nc(N5[C@@H]6CC[C@H]5[C@@H](F)[C@@H](N)C6)c(CO)nc34)c(Cl)c2c1Cl [Example 85, {6-[(1S,2S,3S,5R)-3-amino-2-fluoro-8-azabicyclo[3.2.1]octan-8-yl]-3-(3,4-dichloro-2-methyl-2H-indazol-5-yl)-1H-pyrazolo[3,4-b]pyrazin-5-yl}methanol] | 7.5
Cn1nc2ccc(-c3n[nH]c4nc(N5[C@@H]6CC[C@H]5CNC6)c(CO)nc34)c(Cl)c2c1Cl [Example 86, {6-[3,8-diazabicyclo[3.2.1]octan-8-yl]-3-(3,4-dichloro-2-methyl-2H-indazol-5-yl)-1H-pyrazolo[3,4-b]pyrazin-5-yl}methanol] | 7.2
Cn1nc2ccc(-c3n[nH]c4nc(N5[C@@H]6CC[C@H]5[C@@H](F)[C@@H](N)C6)c(CO)nc34)c(F)c2c1Cl [Example 87, {6-[(1S,2S,3S,5R)-3-amino-2-fluoro-8-azabicyclo[3.2.1]octan-8-yl]-3-(3-chloro-4-fluoro-2-methyl-2H-indazol-5-yl)-1H-pyrazolo[3,4-b]pyrazin-5-yl}methanol] | 8
Cn1nc2ccc(-c3n[nH]c4nc(N5[C@@H]6CC[C@H]5C[C@@H](N)C6)c(CO)nc34)c(Cl)c2c1Cl [Example 88, {6-[endo-3-amino-8-azabicyclo[3.2.1]octan-8-yl]-3-(3,4-dichloro-2-methyl-2H-indazol-5-yl)-1H-pyrazolo[3,4-b]pyrazin-5-yl}methanol] | 7.1
Cc1nc2c(-c3ccc4nn(C)cc4c3Cl)n[nH]c2nc1N1C2CCCC1CNC2 [Example 91, 4-Chloro-5-(6-{3,9-diazabicyclo[3.3.1]nonan-9-yl}-5-methyl-1H-pyrazolo[3,4-b]pyrazin-3-yl)-2-methyl-2H-indazole, hydrochloride salt] | 22
CCn1cc2c(Cl)c(-c3n[nH]c4nc(N5[C@H]6CC[C@@H]5[C@@H](F)[C@@H](N)C6)c(C)nc34)ccc2n1 [Example 92, (1R,2S,3S,5S)-8-[3-(4-Chloro-2-ethyl-2H-indazol-5-yl)-5-methyl-1H-pyrazolo[3,4-b]pyrazin-6-yl]-2-fluoro-8-azabicyclo[3.2.1]octan-3-amine] | 8.3
Cc1nc2c(-c3ccc4nn(C)c(Cl)c4c3Cl)n[nH]c2nc1N1[C@H]2CC[C@@H]1[C@@H](F)[C@@H](N)C2 [Example 93, (1R,2S,3S,5S)-8-[3-(3,4-Dichloro-2-methyl-2H-indazol-5-yl)-5-methyl-1H-pyrazolo[3,4-b]pyrazin-6-yl]-2-fluoro-8-azabicyclo[3.2.1]octan-3-amine] | 3.6
Cc1nc2c(-c3ccc4nn(C)cc4c3Cl)n[nH]c2nc1N1CCC2(CC1)CNC2 [Example 94, 7-[3-(4-Chloro-2-methyl-2H-indazol-5-yl)-5-methyl-1H-pyrazolo[3,4-b]pyrazin-6-yl]-2,7-diazaspiro[3.5]nonane] | 70
